Measurements reported in US9963451B2, “Fused ring pyrimidine compound and pest control agent containing the same” (Mitsui Chemicals Agro, Inc., priority 2013, dated 2018).
Read-outs that look alike come from different tables or passages of the source.

What was measured:
Assay type in all cases: in vivo
Laodelphax striatellus [1] = assay: whole plant or invertebrate
Method: (§1) Insecticidal Test Against Laodelphax striatellus
A chemical solution diluted to have a pre-determined concentration was sprayed to young rice plant (breed: Koshihikari) followed by air drying. Then, it was added to a glass test tube (diameter of 3 cm and height of 10 cm) added with water together with ten 3-stage larvae of Laodelphax striatellus. The tube was then covered. The number of living insects was determined after 6 days and the dead insect ratio was calculated. There were two series, i.e., 10 insects per group. Meanwhile, in Table 29, when combination of two types of test chemicals are used (i.e., A and B), the combination of the two types was described as A+B, and in the concentration column (ppm), it was described as concentration of A+concentration of B.

Myzus persicae = assay: Test Example 12: insecticidal test against Myzus persicae (leaf spray on young white radish plant, single and combined chemicals); details: after 5 days
Method: Insecticidal Test Against Myzus persicae
A chemical solution which has been diluted to have a pre-determined concentration was sprayed on a leaf part of young white radish plant having 1-stage larvae Myzus persicae present thereon. After air drying, they were left to stand in an incubator at 25° C. and the numbers of living insects and dead insects were examined after 5 days (2 series). Meanwhile, in Table 32, when combination of two types of test chemicals are used (i.e., A and B), the combination of the two types was described as A+B, and in the concentration column (ppm), it was described as concentration of A+concentration of B.

Chilo suppressalis = assay: Test Example 10: insecticidal test against Chilo suppressalis (rice stem dip, single and combined chemicals); details: 100 ppm, after 6 days; for pest or weed control at 100 ppm: Chilo suppressalis, 144 h, read-out: Insect death ratio (%)
Method: Insecticidal Test Against Chilo suppressalis
A stem part was cut from a rice plant (breed: Koshihikari) cultivated in water and it was immersed in a chemical solution which has been diluted to have a pre-determined concentration. After air drying, it was put into a 9 cm polyethylene cup having a water-wetted filter paper laid on the bottom thereof, and 3-stage larvae of Chilo suppressalis were released and covered. They were left to stand in an incubator at 25° C., and the numbers of living insects and dead insects were examined after 6 days. There were two series, i.e., 5 insects per group. Meanwhile, in Table 30, when combination of two types of test chemicals are used (i.e., A and B), the combination of the two types was described as A+B, and in the concentration column (ppm), it was described as concentration of A+concentration of B.

Nilaparvata lugens [2] = assay: Test Example 3: insecticidal test against Nilaparvata lugens (spray on young rice plant); details: after 6 days
Method: Insecticidal Test Against Nilaparvata lugens
2.5 ml of acetone solution prepared to have the test compound at the pre-determined concentration described in the following Table 28 was sprayed to young rice plant followed by air drying. Then, it was added to a glass bottle (diameter of 3 cm and height of 13 cm) added with water. Ten sensitive Nilaparvata lugens (3-stage) were released therein, and then the bottle was covered with a cap. After keeping them in an incubator at 25° C., the numbers of living insects and dead insects were determined after 6 days (two series). Meanwhile, as a comparative compound, imidacloprid was used.

Nilaparvata lugens [3] = assay: as above; details: after 6 days; remark: listed apart in the source
Laodelphax striatellus [4] = assay: Test Example 14: insecticidal test against Laodelphax striatellus (spray on young rice plant, comparison with Reference Examples 3 and 4); details: after 6 days
Method: as §1
A young rice plant (breed: Koshihikari) was sprayed with a chemical solution which has been diluted to a pre-determined concentration followed by air drying. Then, it was added to a glass test tube (diameter of 3 cm and height of 10 cm) added with water, together with ten Laodelphax striatellus larvae (3-stage), and then the tube was covered with a cap. The number of dead insects was determined after 6 days and the insect death ratio was calculated. There were two series, i.e., 10 insects per group.
Meanwhile, as a comparative compound, Reference Example 3 disclosed in the pamphlet of International Publication No. 2013/144088 and Reference Example 4 with C═O position different from the present compound were used.

Nilaparvata lugens [5] = assay: Test Example 13: insecticidal test against Nilaparvata lugens using paddy field rice cultivating box (granule treatment); details: for Adult insect death ratio (%): adults released 22 days after treatment, after 5 days; for Number of larvaes (number of insects): next generation larvae after 22 days
Method: Insecticidal Test Against Nilaparvata lugens Using Paddy Field Rice Cultivating Box
A rice plant (breed: Koshihikari) cultivated in cultivating box was treated with granules with a pre-determined chemical amount, and it was transplanted in two pots, i.e., four plants per 1/5000a pot. Twenty-two days after the treatment, 10 female adults of Nilaparvata lugens were released and the young plants were covered with a mesh. Then, the insect death ratio was determined after 5 days. In addition, the number of the next generation larvae was determined after 22 days. There were two series. Meanwhile, in Table 33, when combination of two types of test chemicals (i.e., A and B), the combination of the two types was described as A+B, and in the chemical amount column (g a.i./box), it was described as chemical amount of A+chemical amount of B.

Pyricularia oryzae = assay: whole plant or invertebrate; details: Pyricularia oryzae, 168 h, read-out: Rice blast control value
[6] = Laodelphax striatellus, in Oryza sativa, 144 h, read-out: Insect death ratio (%)
[7] = Laodelphax striatellus, in Oryza sativa, 144 h, 1 ppm, after 6 days, read-out: Insect death ratio (%)
[8] = Laodelphax striatellus, in Oryza sativa, 144 h, 3 ppm, after 6 days, read-out: Insect death ratio (%)

For `COP(=O)(NC(C)=O)SC` (centres unmarked) [Acephate, acephate], the pest or weed control at 3 ppm (Laodelphax striatellus [1]; [6]) was 20%.

`CC(C)N1C(=O)N(c2ccccc2)CS/C1=N\C(C)(C)C` [Buprofezin, buprofezin] showed a pest or weed control at 1 ppm (Laodelphax striatellus [1]; [7]) of 70%.

For `CN/C(=N/CC1CCOC1)N[N+](=O)[O-]` (centres unmarked) [Dinotefuran, dinotefuran], the “Insect death ratio (%)” value (Myzus persicae; 10 ppm) was 75% and the pest or weed control at 1 ppm (Laodelphax striatellus [1]; [6]) was 45%.

`CC[S+]([O-])c1c(C#N)nn(-c2c(Cl)cc(C(F)(F)F)cc2Cl)c1N` (centres unmarked) [Ethiprole, ethiprole] was tested, and the pest or weed control at 3 ppm (Laodelphax striatellus [1]; [8]) was 20%.

In the case of `CCOc1ccc(C(C)(C)COCc2cccc(Oc3ccccc3)c2)cc1` [Ethofenprox, ethofenprox], the “Insect death ratio (%)” value (Chilo suppressalis) is reported as 100% and the “Insect death ratio (%)” value (Laodelphax striatellus [1]; 30 ppm, after 6 days) is reported as 40%.

For `N#Cc1nn(-c2c(Cl)cc(C(F)(F)F)cc2Cl)c(N)c1[S+]([O-])C(F)(F)F` (centres unmarked) [Fipronil, fipronil], the pest or weed control at 1 ppm (Laodelphax striatellus [1]; [7]) was 70%.

`N#CCNC(=O)c1cnccc1C(F)(F)F` [Flonicamid, flonicamid] was tested, and the “Insect death ratio (%)” value (Myzus persicae; 1 ppm) was 79%.

With `Cc1cc(O)no1` [Hydroxyisoxazole, hydroxyisoxazole] the “Insect death ratio (%)” value (Laodelphax striatellus [1]; 600 ppm, after 6 days) was 0%.

In the case of `O=[N+]([O-])NC1=NCCN1Cc1ccc(Cl)nc1` [Imidacloprid, imidacloprid, reference compound], the “Sensitive insect death ratio (%)” value (Nilaparvata lugens [2]; 10 ppm spray) is reported as 100%, the “Sensitive insect death ratio (%)” value (Nilaparvata lugens [2]; 100 ppm spray) is reported as 100% and the “Insect death ratio (%)” value (Myzus persicae; 1 ppm) is reported as 100%. The “Resistant insect death ratio (%)” value (Nilaparvata lugens [3]; 10 ppm spray) was 21.7%, the “Resistant insect death ratio (%)” value (Nilaparvata lugens [3]; 100 ppm spray) was 50.4% and the pest or weed control at 0.1 ppm (Laodelphax striatellus [1]; Laodelphax striatellus, in Oryza sativa, 144 h, 0.1 ppm, after 6 days, read-out: Insect death ratio (%)) was 30%.

With `CC(C)CC(C)c1sccc1NC(=O)c1cn(C)nc1C(F)(F)F` (centres unmarked) [Penthiopyrad, penthiopyrad] the “Insect death ratio (%)” value (Myzus persicae; 100 ppm) was 13%.

With `CC1=NNC(=O)N(/N=C/c2cccnc2)C1` [Pymetrozine, pymetrozine] the “Insect death ratio (%)” value (Myzus persicae; 1 ppm) was 89% and the pest or weed control at 10 ppm (Laodelphax striatellus [1]; Laodelphax striatellus, in Oryza sativa, 144 h, 10 ppm, after 6 days, read-out: Insect death ratio (%)) was 30%.

`CC(=O)N1C(=O)N(NCc2cccnc2)Cc2cc(C(F)(C(F)(F)F)C(F)(F)F)ccc21` [Pyrifluquinazon, pyrifluquinazon] was tested, and the “Insect death ratio (%)” value (Myzus persicae; 1 ppm) was 100%.

`CSc1nc2n(Cc3ccc(Br)nc3)ccc(=O)n2n1` [Reference Example 3, 4-((6-bromopyridin-3-yl)methyl)-2-(methylthio)-[1,2,4]triazolo[1,5-a]pyrimidin-7(4H)-one, reference compound] was tested, and the “Insect death ratio (%)” value (Laodelphax striatellus [4]; 100 ppm) was 21%.

In the case of `CSc1nc2n(Cc3ccc(Cl)nc3)c(=O)cc(C)n2n1` [Reference Example 4, 4-((6-chloropyridin-3-yl)methyl)-7-methyl-2-(methylthio)-[1,2,4]triazolo[1,5-a]pyrimidin-5(4H)-one, reference compound], the “Insect death ratio (%)” value (Laodelphax striatellus [4]; 1000 ppm) is reported as 40%.

`C[Si](C)(C)CC(O)(Cn1cncn1)c1ccc(F)cc1` (centres unmarked) [Simeconazole, simeconazole, reference compound] was tested, and the “Adult insect death ratio (%)” value (Nilaparvata lugens [5]; 2.25 g a.i./box granules) was 20% and the “Number of larvaes (number of insects)” value (Nilaparvata lugens [5]; 2.25 g a.i./box granules) was 69 number of insects.

In the case of `CN1COCN(Cc2cnc(Cl)s2)/C1=N\[N+](=O)[O-]` [Thiamethoxam, thiamethoxam], the “Insect death ratio (%)” value (Myzus persicae; 1 ppm) is reported as 94%.

With `CSc1nc2n(Cc3ccc(Cl)nc3)c(C)cc(=O)n2n1` [compound 5, 4-((6-chloropyridin-3-yl)methyl)-5-methyl-2-(methylthio)-[1,2,4]triazolo[1,5-a]pyrimidin-7(4H)-one] the pest or weed control at 100 ppm (Pyricularia oryzae) was 0%, the “Sensitive insect death ratio (%)” value (Nilaparvata lugens [2]; 10 ppm spray) was 100% and the “Sensitive insect death ratio (%)” value (Nilaparvata lugens [2]; 100 ppm spray) was 100%. The pest or weed control at 100 ppm (Chilo suppressalis) was 0%, the “Insect death ratio (%)” value (Myzus persicae; 100 ppm) was 73% and the “Insect death ratio (%)” value (Laodelphax striatellus [4]; 10 ppm) was 100%. For the same compound, the “Resistant insect death ratio (%)” value (Nilaparvata lugens [3]; 10 ppm spray) was 95%, the “Resistant insect death ratio (%)” value (Nilaparvata lugens [3]; 100 ppm spray) was 100% and the pest or weed control at 3 ppm (Laodelphax striatellus [1]; [8]) was 20%.

With `CSc1cc2n(Cc3ccc(Cl)nc3)c(C)cc(=O)n2n1` [compound 154, 4-((6-chloropyridin-3-yl)methyl)-5-methyl-2-(methylthio)-pyrazolo[1,5-a]pyrimidin-7(4H)-one] the pest or weed control at 100 ppm (Pyricularia oryzae) was 0%, the “Sensitive insect death ratio (%)” value (Nilaparvata lugens [2]; 10 ppm spray) was 100% and the “Sensitive insect death ratio (%)” value (Nilaparvata lugens [2]; 100 ppm spray) was 100%. For the same compound, the “Adult insect death ratio (%)” value (Nilaparvata lugens [5]; 2 g a.i./box granules) was 90%, the “Number of larvaes (number of insects)” value (Nilaparvata lugens [5]; 2 g a.i./box granules) was 0 number of insects and the pest or weed control at 100 ppm (Chilo suppressalis) was 0%. For the same compound, the “Insect death ratio (%)” value (Myzus persicae; 10 ppm) was 70%, the “Insect death ratio (%)” value (Laodelphax striatellus [4]; 10 ppm) was 100% and the “Resistant insect death ratio (%)” value (Nilaparvata lugens [3]; 10 ppm spray) was 100%. For the same compound, the “Resistant insect death ratio (%)” value (Nilaparvata lugens [3]; 100 ppm spray) was 100% and the pest or weed control at 3 ppm (Laodelphax striatellus [1]; [8]) was 40%.

In the case of lepimectin, the “Insect death ratio (%)” value (Myzus persicae; 10 ppm) is reported as 88%.

In the case of milbemectin, the “Insect death ratio (%)” value (Myzus persicae; 10 ppm) is reported as 86%.
